# Measured values as given in the supplement of paper PMC10307832.
# Legend:
# Experiment in all cases: relative viability (nuclei count vs DMSO), 5 days (fraction); higher = more cells survive
# Decitabine + Lapatinib = compound: Nc1ncn([C@H]2C[C@H](O)[C@@H](CO)O2)c(=O)n1 [Decitabine] + CS(=O)(=O)CCNCc1ccc(-c2ccc3ncnc(Nc4ccc(OCc5cccc(F)c5)c(Cl)c4)c3c2)o1 [Lapatinib] (partner 2 µM)
# Outline: (§1)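 After 5 days of treatment, lung cancer cells in 1536-well plates were fixed and stained in a single step (final 0.05% Triton X-100, 1% formaldehyde, 1 ug/ml Hoechst) and their nuclei counted on 4× images. Treatment had been applied by pin tool the day after seeding as one drug alone or as a fixed anchor-drug dose with five library-drug doses (not always all listed) in √10 steps. Relative viability is the nuclei count of treated wells divided by that of vehicle wells, and values are medians of duplicate plates.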
# Cediranib + Dasatinib = compound: COc1cc2c(Oc3ccc4[nH]c(C)cc4c3F)ncnc2cc1OCCCN1CCCC1 [Cediranib] + Cc1nc(Nc2ncc(C(=O)Nc3c(C)cccc3Cl)s2)cc(N2CCN(CCO)CC2)n1 [Dasatinib] (partner 0.075 µM)
# Outline: as §1
# Halofuginone + Lapatinib = compound: O=C(C[C@H]1NCCC[C@@H]1O)Cn1cnc2cc(Br)c(Cl)cc2c1=O (racemic) [Halofuginone] + CS(=O)(=O)CCNCc1ccc(-c2ccc3ncnc(Nc4ccc(OCc5cccc(F)c5)c(Cl)c4)c3c2)o1 [Lapatinib] (partner 2 µM)
# Outline: as §1
# Cediranib + Phenformin = compound: COc1cc2c(Oc3ccc4[nH]c(C)cc4c3F)ncnc2cc1OCCCN1CCCC1 [Cediranib] + N=C(N)NC(=N)NCCc1ccccc1 [Phenformin] (partner 250 µM)
# Outline: as §1
Cell Line,relative viability (Decitabine + Lapatinib; first compound 0.04 µM),relative viability (Decitabine + Lapatinib; first compound 0.1265 µM),relative viability (Decitabine + Lapatinib; first compound 0.4 µM),relative viability (Decitabine + Lapatinib; first compound 1.265 µM),relative viability (Decitabine + Lapatinib; first compound 4 µM),relative viability (Cediranib + Dasatinib; first compound 0.04 µM),relative viability (Cediranib + Dasatinib; first compound 0.1265 µM),relative viability (Cediranib + Dasatinib; first compound 0.4 µM),relative viability (Cediranib + Dasatinib; first compound 1.265 µM),relative viability (Cediranib + Dasatinib; first compound 4 µM),relative viability (Halofuginone + Lapatinib; first compound 0.001 µM),relative viability (Halofuginone + Lapatinib; first compound 0.003162 µM),relative viability (Halofuginone + Lapatinib; first compound 0.01 µM),relative viability (Halofuginone + Lapatinib; first compound 0.03162 µM),relative viability (Halofuginone + Lapatinib; first compound 0.1 µM),relative viability (Cediranib + Phenformin; first compound 0.04 µM),relative viability (Cediranib + Phenformin; first compound 0.1265 µM),relative viability (Cediranib + Phenformin; first compound 0.4 µM),relative viability (Cediranib + Phenformin; first compound 1.265 µM),relative viability (Cediranib + Phenformin; first compound 4 µM)
NCI-H1355,0.884,0.592,0.444,0.286,0.279,0.686,0.745,0.658,0.655,0.747,1.03,1.03,0.972,0.984,0.891,0.441,0.456,0.427,0.442,0.408
NCI-H1395,0.819,0.675,0.571,0.528,0.821,0.44,0.45,0.37,0.374,0.405,1.02,0.873,1.04,0.891,0.71,0.49,0.427,0.467,0.444,0.42
NCI-H1437,0.505,0.582,0.274,0.235,0.221,0.455,0.543,0.445,0.385,0.399,0.835,0.91,0.721,0.755,0.465,0.317,0.285,0.332,0.363,0.369
NCI-H1563,0.922,1.02,0.87,1.07,0.8,0.494,0.897,0.498,0.513,0.492,0.757,0.853,0.879,0.627,0.506,0.63,0.851,0.676,0.651,0.665
NCI-H1650,0.595,0.649,0.217,0.494,0.372,0.343,0.384,0.328,0.37,0.299,0.594,0.787,0.677,0.704,0.194,0.436,0.581,0.351,0.362,0.341
NCI-H1651,0.799,0.977,0.708,0.676,0.747,0.53,0.46,0.432,0.385,0.343,0.939,0.908,0.763,0.768,0.34,0.321,0.327,0.277,0.321,0.311
NCI-H1666,0.622,0.66,0.488,0.56,0.476,0.831,0.888,0.797,0.829,0.762,0.685,0.826,0.626,0.67,0.458,0.564,0.488,0.524,0.548,0.579
NCI-H1734,0.727,0.91,0.635,0.449,0.38,0.463,0.647,0.479,0.364,0.518,1.12,1.02,1.05,0.986,0.812,0.403,0.458,0.383,0.388,0.433
